Assay results: PMC3098219, “Protective Efficacy of Serially Up-Ranked Subdominant CD8^+ T Cell Epitopes against Virus Challenges” (PLoS Pathogens, 2011)
“Also recorded” adds a separate entry of the source.

Experiments:
[1] = test system: syngeneic peptide-pulsed cells; assay: in vivo killing assay (lysis of syngeneic peptide-pulsed cells); design: species or system BALB/c mice; conditions: HIVAdH vaccinated relative to HIVA vaccination; Figure 1F
EcoHIV/NDK = EcoHIV/NDK challenge; conditions: Figure 7C and D; 2x 100 µg DNA, challenge 5 d later; splenocytes and peritoneal macrophages, qPCR
CD8^+ T cells = assay: Immunodominance hierarchy of T cell responses to HIVA-derived epitopes; type: cell-based, BALB/c mice; conditions: 10 d after immunization
[2] = test system: splenocytes of DNA-immunized mice; assay: IFN-γ ELISPOT and ICS with modified HIVA immunogens; type: cell-based, BALB/c mice; conditions: dHmP-immunized group; ELISPOT, ICS and in vivo killing
Description: To further investigate this phenomenon, we serially inactivated CD8^+ T cell epitopes in the order of their immunodominance. To maintain the HIVA protein integrity, epitopes P and G1 were mutated rather than deleted by substituting the anchor amino acid residues required for a strong binding to the H-2K^d molecule (Figure 2A). The resulting double and triple mutants of the HIVA immunogen were called dHmP and dHmPG1, respectively. […] Groups of BALB/c mice were immunized 2x using the modified HIVA immunogens vectored by plasmid DNA and the immune responses were measured in IFN-γ ELISPOT, ICS and in vivo killing assays. […] Second, consistently in all three assays, immune responses directed against subdominant epitopes were serially recovered, however, not to the same extent. […] Because the response to the G2 epitope remained undetectable even in the dHmPG1-immunized mice, overlapping 15/11 peptides across the whole HIVA immunogen were used again to search for another yet unidentified epitope of a higher rank. […] (Figure 2D). […] Thus, step-wise deletion of immunodominant CD8^+ T cell epitopes restores responses to the subdominant epitopes in the hierarchy.
Figure 2 Serial up-ranking of epitopes. A) Groups of 4 BALB/c mice were immunized 2x i.m. with 100 µg of DNA at a 2-wk interval. Two wk later, splenocytes were assessed in an ELISPOT assay for production of IFN-γ upon re-stimulation with peptides indicated above. Shown are schematic diagrams of HIVA and the three modified immunogens with representative examples of the ELISPOT well images. B) Mice were immunized as in A and 4 wk later, splenocytes were assessed in an ICS assay to measure CD8^+ T cells secreting IFN-γ upon re-stimulation with peptide indicated in the top left corner. Group means±SD are shown. C) Identical groups of mice were assessed for cytolytic activity in an in vivo lysis of syngeneic peptide-pulsed cells transferred into naïve or vaccinated animals. Representative examples of dot plots are shown (top) and the peptide-specific lyses are expressed as a group mean±SD (bottom). D) Groups of 3 BALB/c mice were immunized 3x with 100 µg of DNA indicated above the dot plot in 2-wk intervals and the designated NPP peptide-specific responses were assessed by IFN-γ ICS 2 wk later. The FACS plots are representative examples with IFN-γ producing cells as a percentage of CD8^+ splenocytes shown in the top right panels. All experiments were repeated at least once. TEXT PRINTED IN THE PICTURE: (D) HIVA: 0.05 | (D) HIVAdH: 0.09 | (D) dHmP: 0.08 | (D) dHmPG1: 0.57 DOUBTS OF THE COPYIST ABOUT THIS PICTURE: Panel D: the numbers in the top right quadrants of the CD8 / IFN-γ dot plots are printed without a measure or unit, so they are copied as bare numbers.
The ELISPOT assay was performed using the Mouse IFN-γ ELISpot kit (Mabtech) according to the manufacturer's instructions. Spots were visualised using sequential applications of a biotin-conjugated secondary anti-IFN-γ mAb (R4-6A2, Rat IgG1), an alkaline phosphatase and a chromogenic substrate (Bio-Rad) and counted using the AID ELISpot Reader System (Autoimmun Diagnostika).

[3] = test system: CD8^+ splenocytes of DNA-immunized mice; assay: ICS T cell avidity (peptide titration, CD107a/b and IFN-γ); type: cell-based, BALB/c mice; conditions: Figure 3B; individual determinants when dominant: H in group HIVA, P in HIVAdH, G1 in dHmP, NPP in dHmPG1; 3x 100 µg DNA; 5 h
Experimental: T2 cell lines were incubated with decreasing peptide concentrations ranging from 100 µM to 0.1 µM indicated above the H peptide histogram and the cell surface peptide-loaded MHC complexes were detected by fluorochrome-conjugated mAb (DB Biosciences) and quantified using FACS flow cytometer. B) and C) Groups of 3 BALB/c mice were given 3x immunizations using 100 µg of DNA expressing the index or mutated forms of HIVA at 3 wk intervals and their T cell responses were analyzed 4 wk later. B) Splenocytes were assessed in an ICS assay using peptides indicated above the graphs at concentrations ranging from 10 to 10^−8 µM for 5 h. Cells were gated on IFN-γ-producing CD8^+ T cell populations positive (top) or negative (bottom) for CD107a/b. Note the different y-axis scales on the top and bottom graphs. C) The response kinetics of CD8^+ T cells re-stimulated with 0.1 µM peptides was assessed in an ICS assay in 1-h intervals for a period of 4 h. Data shown are as mean±SD of [CD8^+CD107a/b^+IFN-γ^+ cells at each time point (%)] ÷ [CD8^+CD107a/b^+IFN-γ^+ at 4 h (%)]. One out of two independent experiments is shown.
We also measured avidities of T cell responses recovered through the sequential HIVA epitope up-ranking. First, responsiveness of immune splenocytes following 3 plasmid DNA deliveries was measured in an ICS assay upon re-stimulation with peptide concentrations ranging from 10^−8 to 10 µM for 5 h (Figure 3A).

[4] = test system: splenocytes of pTHr.HIVA immunized mice; assay: IFN-γ ELISPOT immunogenicity of HIVA; type: cell-based, BALB/c mice; conditions: Figure 1B and D top

AMQMLKDTI [G1, H-2K^d-restricted, Gag residues 197–205]
in vivo lysis of peptide-pulsed targets [1]: increased in vivo lysis | protection against EcoHIV/NDK challenge (EcoHIV/NDK): sufficient to induce protective efficacy; also recorded: enhanced clearance of EcoHIV/NDK infection | hierarchy of T cell responses against HIVA-derived epitopes (CD8^+ T cells): H>P>>G1>NPP>>G2 | restoration of G1-specific T cell responses [2]: significant restoration of G1-specific T cell responses, now comparable to those against H and restored P | peak IFN-γ^+CD107a/b^+CD8^+ cell frequencies at 10 µM peptide [3]: 3.8 % of total CD8^+ splenocytes | T cell response to G1 from HIVA [4]: hardly detectable responses
